Results published in US8648200B2, “Imidazole derivatives useful for the treatment of arthritis” (Eli Lilly and Company, priority 2011, dated 2014).

Experiments:
[1] = test system: Dunkin Hartley guinea pigs; assay: Monoiodoacetate (MIA) In Vivo Model, incapacitance testing; design: species or system guinea pig; conditions: for Mean % Reduction of Pain Compared to Vehicle / Mean Difference in Hind Paw Weight Bearing (Saline knee-MIA knee): four hours post-dose; for Mean Difference in Hind Paw Weight Bearing (Saline knee-MIA knee): 9 days after MIA, Mean ± SEM, n=6; for pain versus vehicle (statistical comparison): Example 1 both doses (10 and 50 mg/kg), diclofenac 30 mg/kg, p<0.05 by Dunnett's test
Experimental: Male Dunkin Hartley guinea pigs weighing approximately 200-250 grams at the time of MIA injection are used to measure pain in the MIA model. The guinea pigs are group housed in a child's wading pool and maintained in a constant temperature and on a 12 hour light/12 hour dark cycle. On the day before study, the guinea pigs are moved to standard caging with 2 animals per cage. Animals have free access to food and water at all times except during data collection. All experiments are carried out according to protocols approved by the Eli Lilly Institutional Animal Care and Use Committees.
In the standard MIA model the right knees of each guinea pig are injected with MIA (0.3 mg) in saline ([…]) and the left knees with saline (50 μl). Pain is measured at 9 days after MIA injection using incapacitance testing. Incapacitance testing measures the difference in hind paw weight bearing between the MIA and saline injected knees, and each value represents the average of 3 separate measurements each measured over 1 second.
For this study, guinea pigs, are dosed with either vehicle (10% Cremophor® EL (CAS 61791-12-6) in saline) or Example 1 (10 or 50 mg/kg). A fourth group of guinea pigs are also dosed with the nonsteroidal anti-inflammatory drug diclofenac (vehicle saline, 30 mg/kg), which acts as a positive control for the study, as it has previously shown efficacy in the model. All dosing is subcutaneous at a dose volume of 5 ml/kg and group size is n=6. Dose group is randomly assigned to each animal and dosing is staggered by 10 minutes for each guinea pig. Four hours post-dose, pain is measured using incapacitance testing. Results are reported in Table 13 as the mean difference in weight bearing between saline and MIA injected knees and statistical comparisons are made between vehicle treated and compound treated animals to assess the effect of the compound of Example 1 on knee pain in the model.
Data is evaluated by one way analysis of variance; p<0.05 by Dunnett's test for comparison to vehicle and a Bonferroni adjustment is used for comparison between groups.

[2] = test system: synthesis of other prostanoids; assay: Cell Based Assay for Measuring Eicosanoid Selectivity (A549, other prostanoids, PGI2); design: species or system human; conditions: A549 cells, rhIL-1β; PGI2 by enzyme immunoassay
Experimental: (§1) Human epithelial lung carcinoma cell line A549 is obtained from ATCC (CCL-185) and is maintained in Kaighn's F12 (“F12K”)+10% fetal bovine serum, (FBS) (plating medium), and 5% CO2. The cells are passaged at 1:3 twice a week.
(§2) For this assay, cells are released from flasks by washing once with phosphate buffered saline (PBS), then once with Trypsin/EDTA. After 3-5 minutes at 37° C., the cells are suspended in 10 mL of plating medium, and centrifuged at 2,000 rpm at 25° C. for 5 minutes. The supernatant is aspirated, and the cell pellet is resuspended in 10 mL F12K. Cell number is determined by counting an aliquot of cells, which has been diluted in PBS and Trypan blue on a hemocytometer. Cells are plated at 40,000/well in 96 well Falcon plates 24 hours prior to treatment. […] The plates are incubated at room temperature for 30-45 minutes, and then read on a plate reader at A490 to determine viability. […]
(§3) The conditioned medium is assayed for levels of PGE2 and PGI2 by specific enzyme immune-assays (ETAs) according to the manufacturer's protocols (Cayman) Briefly, conditioned medium (1 μL) is added to each well of a 96 well plate coated with a capture antibody and containing ETA buffer (49 μL) supplied by the manufacturer. […] After approximately 45 minutes at room temperature on an orbital shaker at 100 rpm, the plates are read at A412 on a plate reader. […]

[3] = test system: PGE2 formation; assay: Cell Based Assay for Measuring Eicosanoid Selectivity (A549, rhIL-1β induced PGE2); conditions: Homo sapiens; A549 cells, rhIL-1β 0.1-0.2 ng/mL, approx. 18 hours; mean±standard deviation; n=4; read-out: IC50 inhibition of PGE2 formation
Experimental: as §1, §2, §3

[4] = test system: PGF2α and TXB2 production; assay: Human Whole Blood Assay (LPS, PGF2α and TXB2); format: cell-based; conditions: LPS 100 μg/mL, 20-24 hours
Experimental: Blood is collected from normal volunteer donors into sodium heparin vacutainer tubes. Donors have not taken NSAIDs, aspirin, Celebrex, or glucocorticoids within two weeks of the donation. All tubes/donor are pooled into 250 mL Corning conical centrifuge tubes and 436.5 μL/well is distributed into deep well polypropylene plates. Compounds are diluted in DMSO to 100× final and 4.5 μL/well in duplicate or triplicate is added to give 7 point curves. The blood is pretreated at 37° C., 5% CO2, in a humidified atmosphere, loosely covered with a silicone cap mat, for 30 minutes after which 9 μL/well of a solution of 5 mg/mL of lipopolysaccharide (LPS) (Sigma 0111:B4) in 1 mg/mL bovine serum albumin (BSA)/PBS is added to give a final LPS concentration of 100 μg/mL. The plates are incubated for 20-24 hours, loosely covered, at 37° C., 5% CO2, in a humidified atmosphere, on an orbital shaker at approximately 100 rpm. The plates are tightly sealed with silicone cap mats and are chilled on ice for approximately 1 hour. Then the plates are centrifuged at 1800×g, 10 minutes, 4° C., in an Eppendorf 5810R centrifuge. […] One hundred microliters is quantitatively transferred to Costar cluster tubes blocks and 400 μL/well of the methanol stop reagent and internal standards, d-4PGE2, d-4PGF2α, and d-4TX2β are added. […] The products were analyzed by LC/MS/MS.

[5] = target: T1, Human mPGES-1 (Homo sapiens, UniProt O14684); assay: Human mPGES-1 Enzyme Inhibition Assay; format: biochemical; conditions: microsomes from 293E cells, 1.69 μM PGH2; mean±standard deviation; n=10/22
T1 construct: host or cells: 293E cells (transient expression from pcDNA3.1); microsomes
T1 sequence (O14684 1-152): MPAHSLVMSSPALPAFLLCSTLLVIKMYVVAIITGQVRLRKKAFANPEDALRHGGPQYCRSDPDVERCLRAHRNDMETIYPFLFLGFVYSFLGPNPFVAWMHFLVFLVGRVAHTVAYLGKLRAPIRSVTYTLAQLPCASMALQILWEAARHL
Experimental: Human mPGES-1 (Invitrogen™ (Cat #97002RG, clone ID 6374722)) is subcloned into pcDNA3.1 and transiently expressed in 293E cells. […] Briefly, pellets are brought up in homogenization buffer (15 mM Tris-HCl, pH 8.0; 0.25 M sucrose; 0.1 mM EDTA; 1 mM glutathione) and sonicated 5×30 seconds on ice. Homogenate is centrifuged at 5000×g for 10 minutes at 4° C. The supernatant fraction is decanted; loaded into Beckman Quick-Seal® tubes; and centrifuged at 150,000×g for 90 minutes at 4° C. The supernatant fraction is discarded by decantation; and the pellets are resuspended in assay buffer (10 mM sodium phosphate (pH 7.0), 10% glycerol, and 2.5 mM glutathione. Complete Protease Inhibitor Cocktail (Roche)). Protein concentration is determined using the Pierce Coomassie Plus™ reagent.
For the enzyme assay, the microsomes are diluted into assay buffer and 7 μL/well is added to 384 well plates. Compound dilution plates (Nunc Cat #249944) are generated on a Multimek™, and 1 μL/well is added to the assay plates. Prostaglandin H2 (PGH2) is diluted into assay buffer immediately before use and 7 μL/well is added. Final concentrations are 4.4 μg/mL microsomes and 1.69 μM PGH2. After a 2.5 minute incubation at room temperature, 2.5 μL/well of 1 mg/mL of snCl2 in 0.5 N HCl is added to stop the reaction. […]

## O=C(O)Cc1ccccc1Nc1c(Cl)cccc1Cl [Diclofenac, diclofenac, reference compound]
[1]; 30 mg/kg subcutaneous
  Mean % Reduction of Pain Compared to Vehicle: 22%
  Mean Difference in Hind Paw Weight Bearing (Saline knee-MIA knee): 34.65 ± 1.14 g
[1]
  pain versus vehicle (statistical comparison): significantly reduce pain

## Cc1nc(NC(=O)c2cc(CNC(=O)C(C)C)cnc2C(F)F)[nH]c1-c1ccc(C(F)(F)F)cc1 [Example 1, 2-(Difluoromethyl)-5-{[(2-methylpropanoyl)amino]methyl}-N-{4-methyl-5-[4-(trifluoromethyl)phenyl]-1H-imidazol-2-yl}pyridine-3-carboxamide]
[2]
  effect on synthesis of other prostanoids: without affecting the synthesis of other prostanoids
[3]
  IC50: 12.1 ± 6.1 nM
[4]
  effect on PGF2α production: without inhibiting
  effect on TXB2 production: without inhibiting
[5]
  IC50: 0.944 ± 0.59 nM
[1]; 10 mg/kg subcutaneous
  Mean % Reduction of Pain Compared to Vehicle: 15%
  Mean Difference in Hind Paw Weight Bearing (Saline knee-MIA knee): 37.53 ± 0.87 g
[1]; 50 mg/kg subcutaneous
  Mean % Reduction of Pain Compared to Vehicle: 36%
  Mean Difference in Hind Paw Weight Bearing (Saline knee-MIA knee): 28.44 ± 0.66 g
[1]; 50 mg/kg, Bonferroni adjustment for comparison between groups
  50 mg/kg group compared with the 10 mg/kg group and the diclofenac group: significantly different
[1]
  pain versus vehicle (statistical comparison): significantly reduce pain
